{
  "source": "paper PMC4586642",
  "about": "“CYP450 Enzyme-Mediated Metabolism of TCAS and Its Inhibitory and Induced Effects on Metabolized Enzymes in Vitro” (International Journal of Environmental Research and Public …, 2015)",
  "key": {"[1]": {"test_system": "CYP1A", "experiment": "Induction of CYP1A activity in sandwich-cultured rat hepatocytes (phenacetin probe)", "details": "2.5 µM, 72 h", "protocol": "(§1) Rat primary hepatocytes were prepared according to a modified, two-step collagenase perfusion method. Viability of hepatocyte was determined by Trypan Blue exclusion. Only those hepatocyte preparations with viability greater than 90% were used for further studies. Hepatocyte suspensions were prepared with DMEM-F12 containing 10% FBS, 100 U/mL penicillin, 100 µg/mL streptomycin, 1 µM DEX and 4 µg/mL insulin. Then, hepatocyte suspensions were seeded into the pre-coated wells at a density of 1 × 10^6 cells/well in 24-well plates. […] Medium was changed daily. On day 4, the cultured hepatocytes were washed twice with Hank’s balanced salt solution containing 25 mM HEPES and incubated with 0.5 mL of the same buffer containing 50 μM phenacetin and 5 μM midazolam at 37 °C for 1h. At the end of incubation, 0.5 mL aliquots of the media were transferred to 1.5-mL test tubes and stored at −20 °C until analysis. All incubations were conducted in triplicate.\n(§2) Results were analyzed by a two-factor ANOVA. A p < 0.05 was considered statistically significant. […] Microsoft Excel (Microsoft, Redmond, WA, USA) was used to calculate IC50 estimates by linear transformation of the raw data. The data were corrected for both background and control activities."}, "[2]": {"test_system": "CYP3A", "experiment": "Induction of CYP3A activity in sandwich-cultured rat hepatocytes (midazolam probe)", "details": "1 mM, 72 h", "protocol": "as §1, §2"}, "[3]": {"test_system": "T1, CYP2C9 (2C9)", "T1 construct": "native enzyme in rat liver microsomes (RLMs)", "experiment": "Inhibition of isoform-selective probe metabolism (phenacetin 1A2, tolbutamide 2C9, bupropion 2B6, dextromethorphan 2D6, midazolam 3A) in rat liver microsomes (0.4 mg/mL) with an NADPH-generating system, 0.5-500 uM TCAS, 30 min at 37 °C, LC-MS/MS readout.", "assay_type": "biochemical", "details": "SD, n = 3", "protocol": "(§3) The inhibitory effects of TCAS on the activities of CYP1A2, CYP2C9, CYP2D6, CYP2B6 and CYP3A were tested in RLMs and HLMs using probes selective for each isoform. The reaction probes used were as follows: phenacetin for CYP1A2; tolbutamide for CYP2C9; dextromethorphan for CYP2D6; midazolam for CYP3A and bupropion for CYP2B6. Incubation conditions specific to each isoform were linear with time, substrate, and protein concentrations as detailed in our previous studies. Isoform-specific substrate probes were incubated in duplicate at 37 °C with RLMs and HLMs and an NADPH-generating system in the absence (control) or presence of various concentrations (0.5, 1.5, 5, 15, 50, 100, and 500 µM) of TCAS. A 5-min pre-incubation was carried out before the reaction was initiated by adding 0.4 mg/mL of RLMs and HLMs. After incubation for 30 min, the reaction was terminated with 400 μL of ice-cold stop solution.\n(§4) Results were analyzed by a two-factor ANOVA. A p < 0.05 was considered statistically significant."}, "[4]": {"test_system": "T2, CYP2D6 (2D6)", "T2 construct": "native enzyme in rat liver microsomes (RLMs)", "experiment": "Inhibition of isoform-selective probe metabolism (phenacetin 1A2, tolbutamide 2C9, bupropion 2B6, dextromethorphan 2D6, midazolam 3A) in rat liver microsomes (0.4 mg/mL) with an NADPH-generating system, 0.5-500 uM TCAS, 30 min at 37 °C, LC-MS/MS readout.", "assay_type": "biochemical", "details": "SD, n = 3", "protocol": "as §3, §4"}, "[5]": {"test_system": "T3, CYP3A4 (3A4)", "T3 construct": "native enzyme in rat liver microsomes (RLMs)", "experiment": "Inhibition of isoform-selective probe metabolism (phenacetin 1A2, tolbutamide 2C9, bupropion 2B6, dextromethorphan 2D6, midazolam 3A) in rat liver microsomes (0.4 mg/mL) with an NADPH-generating system, 0.5-500 uM TCAS, 30 min at 37 °C, LC-MS/MS readout.", "assay_type": "biochemical", "details": "SD, n = 3", "protocol": "as §3, §4"}, "[6]": {"test_system": "T4, CYP2B6 (2B6)", "T4 construct": "native enzyme in rat liver microsomes (RLMs)", "experiment": "Inhibition of isoform-selective probe metabolism (phenacetin 1A2, tolbutamide 2C9, bupropion 2B6, dextromethorphan 2D6, midazolam 3A) in rat liver microsomes (0.4 mg/mL) with an NADPH-generating system, 0.5-500 uM TCAS, 30 min at 37 °C, LC-MS/MS readout.", "assay_type": "biochemical", "details": "SD, n = 3", "protocol": "as §3, §4"}, "[7]": {"molecular_target": "CYP2C9 (Homo sapiens, UniProt P11712)", "sequence (P11712 whole entry)": "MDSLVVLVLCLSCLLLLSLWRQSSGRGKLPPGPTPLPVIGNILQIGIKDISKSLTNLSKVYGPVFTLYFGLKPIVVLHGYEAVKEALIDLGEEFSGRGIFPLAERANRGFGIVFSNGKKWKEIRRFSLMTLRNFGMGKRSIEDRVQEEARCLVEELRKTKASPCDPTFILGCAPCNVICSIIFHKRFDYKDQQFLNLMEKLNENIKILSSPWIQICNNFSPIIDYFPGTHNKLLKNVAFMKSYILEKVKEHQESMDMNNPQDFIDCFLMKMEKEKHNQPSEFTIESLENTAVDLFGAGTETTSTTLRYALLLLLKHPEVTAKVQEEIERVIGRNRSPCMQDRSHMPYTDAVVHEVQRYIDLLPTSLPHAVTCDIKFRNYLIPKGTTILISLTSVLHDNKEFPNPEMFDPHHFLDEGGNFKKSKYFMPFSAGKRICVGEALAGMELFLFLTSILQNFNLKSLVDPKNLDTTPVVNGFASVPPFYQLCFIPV", "experiment": "in vitro", "details": "microsomes, pH 7.4", "description": "(§5) Inhibitor stock solutions prepared in appropriate solvents accounted for 0.4% organic solvent in the final incubation for 30 min at 37 °C with gentle shaking before stopping with 400 μL ice-cold stop solution (1:1 (v:v) mixture of acetonitrile and methanol) containing 50 ng/mL tolbutamide (IS). After vortexing for 30 seconds, and centrifugation at 16,000 g for 10 min, the supernatant was collected and analyzed by LC-MS/MS as described above. […] All incubations were conducted in triplicate."}, "[8]": {"molecular_target": "CYP1A2 (Homo sapiens, UniProt P05177)", "sequence (P05177 whole entry)": "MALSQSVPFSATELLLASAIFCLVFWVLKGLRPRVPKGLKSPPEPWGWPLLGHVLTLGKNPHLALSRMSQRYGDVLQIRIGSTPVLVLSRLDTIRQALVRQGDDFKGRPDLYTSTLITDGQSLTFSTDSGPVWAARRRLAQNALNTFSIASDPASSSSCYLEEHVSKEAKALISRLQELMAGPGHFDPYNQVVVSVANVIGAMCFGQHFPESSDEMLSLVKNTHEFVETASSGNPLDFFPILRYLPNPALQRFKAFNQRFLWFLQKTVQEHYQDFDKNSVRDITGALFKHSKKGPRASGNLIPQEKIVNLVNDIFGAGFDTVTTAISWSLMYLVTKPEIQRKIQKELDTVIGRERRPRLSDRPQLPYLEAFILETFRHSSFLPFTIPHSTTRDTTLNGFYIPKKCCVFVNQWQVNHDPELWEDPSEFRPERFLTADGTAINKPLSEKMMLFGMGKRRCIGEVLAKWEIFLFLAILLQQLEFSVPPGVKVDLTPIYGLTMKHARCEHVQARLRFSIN", "experiment": "TCAS incubation with human liver microsomes plus CYP1A2-selective inhibitor", "details": "pH 7.4, probe TCAS (100 µM)", "description": "as §5"}},
  "data": [
    {"smiles": "Cc1ccc2cc3c(ccc4ccccc43)c3c2c1CC3", "note": "[3-MC, 3-methylcholanthrene]", "values": [
      {"measurement": "mean induction of CYP1A activity compared with control cells", "setting": "[1]", "value": 23.8, "unit": "fold"}
    ]},
    {"smiles": "CCC1(c2ccccc2)C(=O)NC(=O)NC1=O", "note": "[PB, phenobarbital]", "values": [
      {"measurement": "mean induction of CYP3A activity compared with control cells", "setting": "[2]", "value": 5.1, "unit": "fold"}
    ]},
    {"smiles": "O=S(=O)(O)c1cc2c(O)c(c1)Sc1cc(S(=O)(=O)O)cc(c1O)Sc1cc(S(=O)(=O)O)cc(c1O)Sc1cc(S(=O)(=O)O)cc(c1O)S2", "note": "[TCAS, Thiacalix[4]arene tetrasulfonate]", "values": [
      {"measurement": "IC50", "setting": "[3]", "value": "383 ± 23.5", "unit": "µM"},
      {"measurement": "IC50", "setting": "[4]", "value": "196 ± 17.6", "unit": "µM"},
      {"measurement": "IC50", "setting": "[5]", "value": "2420 ± 235", "unit": "µM"},
      {"measurement": "IC50", "setting": "[6]", "value": "1700 ± 103", "unit": "µM"}
    ]},
    {"smiles": "Nc1ccc(S(=O)(=O)Nc2ccnn2-c2ccccc2)cc1", "note": "[sulfaphenazole]", "values": [
      {"measurement": "inhibition at 30 min, 60 µM", "setting": "[7]", "value": 51.7, "unit": "%"}
    ]},
    {"smiles": "O=c1cc(-c2ccccc2)oc2c1ccc1ccccc12", "note": "[α-Naphthoflavone]", "values": [
      {"measurement": "inhibition at 30 min, 6 µM", "setting": "[8]", "value": 54.9, "unit": "%"}
    ]}
  ]
}
